pIC50: −log10 of the molar value. Values joined by “and” are separate entries in the source; they are usually repeats but may differ in a detail not shown here. Equal entries are not always repeated.

For the experiment, the system named is SARS-CoV-2 B.1 (D614G) wild-type. Format: cell-based.

For `O=c1nc(NO)ccn1[C@@H]1O[C@H](CO)[C@@H](O)[C@H]1O` [EIDD-1931], the “Increase in antiviral activity by the P-gp inhibitor” value is given as “negligible”. The pIC50 – broadly, the IC50 on a negative log10 scale, so that one unit is a factor of ten – (read-out: IC50 WT Mean ± SD) was 5.96 and 5.82.

Source of the values: article PMC9321742 (Viruses, 2022).
